Test results as given in PMC7502707, “Characterization and validation of a preventative therapy for hypertrophic cardiomyopathy in a murine model of the disease” (Proceedings of the National Academy of Sciences of the …, 2020).
Marks after values point to notes of the source that are not given here.

Tests used:
[1] = tested on: cTnI-G203S mice; assay: Echocardiography of treated cTnI-G203S mice; assay type: in vivo, mouse; settings: for FS / HW:BW / IVSD / IVSS / LVDPW / LVEDD / LVESD / LVSPW: 10 μM i.p. 3×/wk/5 wk, mean
Description: Male mice expressing the human cTnI gene encoding the human disease-causing mutation cTnI-G203S were used for all studies. The mice develop hallmark features of HCM by 21 wk ([7], [13]). Male mice expressing the normal human cTnI gene were used as controls (wt). Ten-week-old mice were used for in vitro studies. For in vivo studies, 20- or 30-wk-old cTnI-G203S mice were treated with 10 μM AID-TAT or AID[S]-TAT via intraperitoneal injection, 3×/wk/5 wk. In vivo dose of AID-TAT or AID[S]-TAT (10 μM) was calculated based on blood volume, equating to ∼2 mg/kg total BW. Male animal models were used to eliminate potential differences in responses due to sex. Experiments were performed in a total of 21 wt (AID[S]-TAT), 6 wt (AID-TAT), 15 cTnI-G203S (AID[S]-TAT), and 26 cTnI-G203S (AID-TAT) mice. All animals were randomly assigned to treatment groups. All animal studies were approved by the Animal Ethics Committee of The University of Western Australia in accordance with the 2013 Australian Code for the Care and Use of Animals for Scientific Purposes ([58]).
Echocardiographic measurement of left ventricular function were performed on mice under light methoxyflurane anesthesia using an i13L probe on a Vivid 7 Dimension ultrasound system (GE Healthcare), as previously described ([13], [29], [30]). Each n represents the average of quantitative measurements from wt or cTnI-G203S mice for each treatment group. Detailed methods are provided in SI Appendix.
Echocardiographic measurement of left ventricular function were performed on mice under light methoxyflurane anesthesia using an i13L probe on a Vivid 7 Dimension ultrasound system (GE Healthcare, Little Chalfont, United Kingdom) as previously described (4, 7). Echocardiographic measurements were taken on M-mode in triplicate from separate mice at a sweep speed of 200 mm/s. Each n represents the average of quantitative measurements from wt or cTnI-G203S mice for each treatment group. Measurements of left ventricular end diastolic diameter (LVEDD), left ventricular end systolic diameter (LVESD), fractional shortening (FS), left ventricular posterior wall in diastole (LVDPW), left ventricular posterior wall in systole (LVSPW), interventricular septum in diastole (IVSD), interventricular septum in systole (IVSS) and end diastolic diameter (EDD) were made. FS was calculated by the formula [(LVEDD-LVESD)/EDD] x 100. […]
(BioAssay Systems, Hayward CA). All assays were performed as per manufacturer’s instructions, using a spectrophotometer (PowerWave XS).

[2] = tested on: wt and cTnI-G203S mice; assay: Toxicity parameters: terminal serum urea, creatinine, ALT, AST and body weight; assay type: in vivo, mouse
Description: Mice were treated with 10 μM AID(S)-TAT or AID-TAT 3×/wk/5 wk (equaling 15 doses). BW was recorded prior to administration of each peptide dose, and reported as a percentage of day 1 BW. A 5 to 10% reduction in BW directed increased monitoring as recommended by The Animal Ethics Committee of The University of Western Australia in accordance with the 2008 Guidelines to Promote the Wellbeing of Animals Used for Scientific Purposes ([65]). Following completion of treatment regimen, mice were anesthetized and terminal blood collected. Serum was extracted and used to measure kidney and liver toxicity as previously described ([66]). Detailed methods are provided in SI Appendix.
Echocardiographic measurement of left ventricular function were performed on mice under light methoxyflurane anesthesia using an i13L probe on a Vivid 7 Dimension ultrasound system (GE Healthcare, Little Chalfont, United Kingdom) as previously described (4, 7). Echocardiographic measurements were taken on M-mode in triplicate from separate mice at a sweep speed of 200 mm/s. Each n represents the average of quantitative measurements from wt or cTnI-G203S mice for each treatment group. Measurements of left ventricular end diastolic diameter (LVEDD), left ventricular end systolic diameter (LVESD), fractional shortening (FS), left ventricular posterior wall in diastole (LVDPW), left ventricular posterior wall in systole (LVSPW), interventricular septum in diastole (IVSD), interventricular septum in systole (IVSS) and end diastolic diameter (EDD) were made. FS was calculated by the formula [(LVEDD-LVESD)/EDD] x 100.
Cell size was determined as previously described (16). […]
To measure kidney toxicity, urea and creatinine concentration was assessed using QuantiChrom Urea and Creatinine assay kits respectively (BioAssay Systems, Hayward CA). To measure liver toxicity, alanine transaminase (ALT) and aspartate transaminase (AST) concentration was measured using Alanine Transaminase and Aspartate Transaminase assay kits respectively (BioAssay Systems, Hayward CA). […]

[3] = tested on: wt and cTnI-G203S cardiac myocytes; parameters: method as in PMID 19166857, PMID 24969422, PMID 24958783; settings: cited from earlier work
[4] = Post-HCM treatment (from 30 wk), 35-wk-old cTnI-G203S mice, n = 5
[5] = Pre-HCM treatment (from 20 wk), 25-wk-old cTnI-G203S mice, n = 7 AID(S)-TAT, n = 6 AID-TAT
[6] = terminal serum, 10 μM 3×/wk/5 wk

QQLEEDLKGYLDWITQAE [AID-TAT]
FS [1, 4]: 48.48% | HW:BW [1, 4]: 5.81 mg/g | IVSD [1, 4]: 0.95 mm | IVSS [1, 4]: 1.05 mm | LVDPW [1, 4]: 1.26 mm | LVEDD [1, 4]: 3.18 mm | LVESD [1, 4]: 1.67 mm | LVSPW [1, 4]: 1.43 mm | FS [1, 5]: 38.26^† % | HW:BW [1, 5]: 4.70^† mg/g | IVSD [1, 5]: 0.73^† mm | IVSS [1, 5]: 0.82^† mm | LVDPW [1, 5]: 1.23 mm | LVEDD [1, 5]: 3.33^† mm | LVESD [1, 5]: 2.06^† mm | LVSPW [1, 5]: 1.37 mm | reversal of established HCM ([1]; cTnI-G203S mice with established HCM, 10 μM 3×/wk/5 wk): not effective at reversing the cardiomyopathy | development of HCM ([1]; precardiomyopathic cTnI-G203S mice, 10 μM 3×/wk/5 wk): prevents the development of HCM | body weight over the course of treatment ([2]; 15 doses, % of day 1 BW): no significant reduction | kidney toxicity: serum urea and creatinine [2, 6]: No significant alterations | liver toxicity: serum ALT and AST [2, 6]: No significant alterations | elevated Ψm in response to activation of ICa-L [3]: attenuates elevated Ψm
